What was measured:
M-NFS-60 cells = assay: MTS cell viability assay, M-NFS-60; format: cell-based; conditions: 72 h, read-out: Cellular Proliferation Assay M-NFS-60 (nM) GI50
Summary of the method: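 Cells seeded 16 h beforehand (10000 M-NFS-60 or 8000 BaF3-CSF1R-1600 per well), then exposed 72 h to test compounds in RPMI1640 with 10% FBS at 37 °C. Viability read by MTS absorbance at 490 nm; GI50 is the concentration giving 50% viability reduction versus DMSO vehicle.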

PDGFR B = PDGFR B (Homo sapiens, UniProt P09619); assay: HotSpot kinase profiling, PDGFR B; format: biochemical; conditions: HotSpot assay, 10 μM ATP; IC50 of kinase divided by that of CSF1R
PDGFR B, sequence (P09619 33-1106): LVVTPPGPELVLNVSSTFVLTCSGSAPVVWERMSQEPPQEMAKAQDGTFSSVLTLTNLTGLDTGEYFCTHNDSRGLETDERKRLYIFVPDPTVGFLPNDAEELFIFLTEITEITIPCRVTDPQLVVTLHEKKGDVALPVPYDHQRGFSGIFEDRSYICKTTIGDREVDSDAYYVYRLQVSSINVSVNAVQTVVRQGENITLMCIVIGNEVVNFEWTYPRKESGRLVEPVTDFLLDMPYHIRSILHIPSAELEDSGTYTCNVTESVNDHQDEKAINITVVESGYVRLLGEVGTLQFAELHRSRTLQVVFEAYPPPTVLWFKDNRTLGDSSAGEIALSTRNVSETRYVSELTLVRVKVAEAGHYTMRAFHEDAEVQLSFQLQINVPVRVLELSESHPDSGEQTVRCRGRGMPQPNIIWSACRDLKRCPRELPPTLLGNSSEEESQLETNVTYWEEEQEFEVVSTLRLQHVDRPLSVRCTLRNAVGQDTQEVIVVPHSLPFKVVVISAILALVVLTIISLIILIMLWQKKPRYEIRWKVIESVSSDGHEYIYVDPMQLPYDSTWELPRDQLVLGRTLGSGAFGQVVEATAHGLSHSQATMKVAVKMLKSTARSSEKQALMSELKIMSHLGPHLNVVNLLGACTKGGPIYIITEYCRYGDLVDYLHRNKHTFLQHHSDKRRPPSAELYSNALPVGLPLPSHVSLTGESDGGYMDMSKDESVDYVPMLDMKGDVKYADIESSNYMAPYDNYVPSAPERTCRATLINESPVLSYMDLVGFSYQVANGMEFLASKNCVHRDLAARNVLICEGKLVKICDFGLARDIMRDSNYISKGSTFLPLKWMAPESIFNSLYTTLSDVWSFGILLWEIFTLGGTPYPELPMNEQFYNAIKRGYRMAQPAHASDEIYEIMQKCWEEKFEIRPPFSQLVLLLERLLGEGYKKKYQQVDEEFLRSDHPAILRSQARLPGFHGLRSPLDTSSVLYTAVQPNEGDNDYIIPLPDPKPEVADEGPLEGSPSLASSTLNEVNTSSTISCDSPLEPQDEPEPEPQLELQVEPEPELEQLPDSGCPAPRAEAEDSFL
Description: (§1) A study was conducted to determine kinase selectivity of compounds 27 and 67. More specifically, each compound was tested for inhibitory activity of CSF1R kinase, as compared to that of seven other kinases, i.e., Aurora A, Aurora B, tyrosine-protein kinase Kit (c-Kit), fms-like tyrosine kinase 3 (FLT3), platelet-derived growth factor receptor (PDGFR) A, PDGFR B, and discoidin domain receptor tyrosine kinase 1 (DDR1).
(§2) In vitro profiling of the kinase panel was performed at Reaction Biology Corporation (www.reactionbiology.com, Malvern, PA) using the “HotSpot” assay platform. Briefly, specific kinase/substrate pairs along with required cofactors were prepared in a reaction buffer containing 20 mM Hepes pH 7.5, 10 mM MgCl2, 1 mM EGTA, 0.02% Brij35, 0.02 mg/ml BSA, 0.1 mM NA3VO4, 2 mM DTT, and 1% DMSO. Compound 27 or 67 was added. 20 minutes later, a mixture of ATP (Sigma, St. Louis MO) and ^33P ATP (Perkin Elmer, Waltham MA) was added to the resulting reaction solution to give a final concentration of 10 μM. The reaction was carried out at room temperature for 120 min., followed by spotting the reaction solution onto P81 ion exchange filter paper (Whatman Inc., Piscataway, NJ). Unbound phosphate was removed by extensive washing filters in 0.75% phosphoric acid. […] Selectivity, expressed as an IC50 ratio, was determined by dividing the IC50 value of a kinase, e.g., Aurora A, by that of CSF1R.

[1] = molecular target: discoidin domain receptor tyrosine kinase 1 (DDR1) (Homo sapiens, UniProt Q08345); assay: HotSpot kinase profiling, DDR1; format: biochemical; conditions: HotSpot assay, 10 μM ATP; IC50 of kinase divided by that of CSF1R
discoidin domain receptor tyrosine kinase 1 (DDR1), sequence (Q08345 19-913): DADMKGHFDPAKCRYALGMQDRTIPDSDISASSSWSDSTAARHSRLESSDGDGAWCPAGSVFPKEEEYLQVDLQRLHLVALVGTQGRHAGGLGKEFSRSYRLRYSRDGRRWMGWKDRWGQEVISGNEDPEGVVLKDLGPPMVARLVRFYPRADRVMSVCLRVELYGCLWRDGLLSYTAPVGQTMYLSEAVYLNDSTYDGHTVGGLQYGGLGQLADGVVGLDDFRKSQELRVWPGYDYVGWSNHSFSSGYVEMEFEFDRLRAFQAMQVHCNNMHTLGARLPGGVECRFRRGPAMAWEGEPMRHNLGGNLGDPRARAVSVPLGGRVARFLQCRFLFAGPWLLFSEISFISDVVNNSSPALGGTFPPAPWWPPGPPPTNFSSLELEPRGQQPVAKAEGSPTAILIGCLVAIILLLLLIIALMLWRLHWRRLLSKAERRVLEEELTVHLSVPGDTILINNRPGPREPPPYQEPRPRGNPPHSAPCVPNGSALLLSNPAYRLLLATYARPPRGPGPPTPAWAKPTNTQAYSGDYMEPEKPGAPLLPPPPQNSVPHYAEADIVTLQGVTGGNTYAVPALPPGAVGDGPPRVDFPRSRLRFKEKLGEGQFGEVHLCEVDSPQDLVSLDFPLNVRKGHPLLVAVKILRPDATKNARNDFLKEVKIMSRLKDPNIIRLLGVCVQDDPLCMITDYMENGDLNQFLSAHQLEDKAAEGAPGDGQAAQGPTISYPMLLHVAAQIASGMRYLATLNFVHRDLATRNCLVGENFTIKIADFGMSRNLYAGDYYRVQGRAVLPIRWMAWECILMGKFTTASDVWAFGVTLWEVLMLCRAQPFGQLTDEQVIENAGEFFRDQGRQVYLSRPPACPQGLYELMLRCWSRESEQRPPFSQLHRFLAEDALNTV
Description: as §1, §2

Compound	GI50 (M-NFS-60 cells) [nM]	IC50 ratio PDGFR B / CSF1R (PDGFR B)	IC50 ratio DDR1 / CSF1R [1]
CN(C)c1ccc2c(Oc3ccc(NC(=O)NCc4ccc(C(F)(F)F)nc4)cc3)ncnc2c1 [Compound 27, 1-(4-((7-(dimethylamino)quinazolin-4-yl)oxy)phenyl)-3-((6-(trifluoromethyl)pyridin-3-yl)methyl)urea]	20 to 100	++ (++: 100 > IC50 ratio > 10)	+++ (+++: 1000 > IC50 ratio > 100)
CN(C)c1ccc2c(Oc3ccc4c(ccn4C(=O)NCc4ccc(C(F)(F)F)nc4)c3)ncnc2c1 [Compound 67, 5-((7-(dimethylamino)quinazolin-4-yl)oxy)-N-((6-(trifluoromethyl)pyridin-3-yl)methyl)-1H-indole-1-carboxamide]	100 to 1000	+++ (+++: 1000 > IC50 ratio > 100)	+ (+: 10 > IC50 ratio > 1)
